We go through 6 compounds from ChEMBL document CHEMBL1141795, “Aspirochlorine class compounds from Aspergillus flavus inhibit azole-resistant Candida albicans” (J Nat Prod, 2005).

For orientation: IC50 means the concentration that inhibits the measured activity by half.

Data set [1] concerns Candida albicans. In words: Antifungal activity against azole-resistant Candida albicans 99-788. It counts as functional, organism-based.
In data set [2] the test system is CCRF-CEM. Kind of data set: Cytotoxicity against human CEM cells after 96 hrs. It counts as functional, cell-based.
Data set [3] in a line: in vitro. To be noted: human.
Description: Therapeutic index, IC50 for human CEM cells to IC 50 for azole-resistant Candida albicans 99-788
[4] abbreviates: CEM cells (versus azole-resistant Candida albicans 99-788).

On to `CC(C)C[C@@H]1C(=O)N[C@@H](Cc2c[nH]c3ccccc23)C(=O)N1C`, for which the IC50 in data set [1] and in data set [2] was greater than 31 µM each time.

Regarding `CON1C(=O)C2NC(=O)[C@@]13Oc1cc(O)c(Cl)cc1[C@@H]3SSSS2` [TETRATHIOASPIROCHLORINE], in data set [3] (setting [4]), the selectivity ratio came to 50. For the same compound, the half-maximal inhibitory concentration (IC50) in data set [1] was 0.083 µM; in data set [2] it was 4.2 µM.

Consider `CON1C(=O)[C@H]2NC(=O)[C@]13Oc1cc(O)c(Cl)cc1[C@@H]3SS2` [ASPIROCHLORINE], for which, in data set [3] (setting [4]), the selectivity ratio was found to be 20. The IC50 is 0.028 µM in data set [1] and 0.58 µM in data set [2].

With `COC1=CC(=O)C[C@@H](C)[C@]12Oc1c(Cl)c(OC)cc(OC)c1C2=O` [GRISEOFULVIN], the IC50 in data set [1] was greater than 28 µM; in data set [2], 10 µM.

For `C[C@@H]1[C@H](O)[C@@H](C)/C=C/C=C/C=C/C=C/C=C/C=C/C=C/[C@H](O[C@@H]2O[C@H](C)[C@@H](O)[C@H](N)[C@@H]2O)C[C@@H]2O[C@](O)(C[C@@H](O)C[C@@H](O)[C@H](O)CC[C@@H](O)C[C@@H](O)CC(=O)O[C@H]1C)C[C@H](O)[C@H]2C(=O)O` [AMPHOTERICIN B], the selectivity ratio in data set [3] (ccrf-cem) turned out to be 1000. Moreover, the values for the IC50 in data set [1] and in data set [2] were 0.16 µM and 160 µM, respectively.

For `CN1C(=O)[C@]23CC4=CC=C[C@H](O)[C@H]4N2C(=O)[C@@]1(CO)SS3` [GLIOTOXIN], the IC50 in data set [1] was 3.1 µM; in data set [2], 0.15 µM.
